According to patent EP3685668B1, “COMPOSITION COMPRISING ACIBENZOLAR-S-METHYL AS EFFECTIVE INGREDIENT FOR CONTROLLING BURSAPHELENCHUS XYLOPHILUS DISEASE AND METHOD FOR CONTROLLING BURSAPHELENCHUS XYLOPHILUS USING SAME” (Industry Foundation of Chonnam National University, priority 2017, dated 2019):

Key:
Format in all cases: cell-based
Extensin = assay: qRT-PCR expression of induced resistance gene in pine tree callus; conditions: for Expression of induced resistance gene, Extensin: 24 hours
How it was run: (§1)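 Pine callus (100 mg) in LM liquid medium treated with candidate inducers at 200 µg/mℓ final, applied to the surface or sprayed, shaken 50 rpm at 25 °C in the dark for 24 h (acibenzolar-S-methyl also 1, 7 or 14 days). Gene expression by qRT-PCR on callus RNA, with elongation factor_1 alpha as reference.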

PR_1b family = assay: as above; conditions: 200 µg/mℓ; for Expression of induced resistance gene, PR_1b family: 24 hours
How it was run: as §1

PR_10 family = assay: as above; conditions: for Expression of induced resistance gene, PR_10 family: 24 hours
How it was run: as §1

PR_5 family = assay: as above; conditions: for Expression of induced resistance gene, PR_5 family: 24 hours
How it was run: as §1

Cytochrome_P450 = assay: as above; conditions: for Expression of induced resistance gene, Cytochrome_P450: 24 hours
Method: For in vitro analysis of induced resistance, the expression of PR genes and other plant defense-related genes was determined, which are evolved in various defense mechanisms including induced resistance. The primers of sixteen induced resistance-related genes of pine tree used in this invention were listed in the below and elongation factor_1 alpha were used as a reference gene. […] The primer list of defense resistance-related genes
(§2) After the treatment with 200 µg / mℓ of candidates of the selected induced resistance material, expression of the induced resistance-related gene in pine callus was determined by qRT-PCR using the primer pairs of defense resistance-related genes in Table 4. As a candidate group of an induced resistance material in pine tree, acibenzolar-S-methyl (ASM), TDL (Tiadinil), ITL (Isotianil), PBZ (Probenzole), AZO (Azoxystrobin), VMA (Validamycin A), MeJA (Methyl jasmonate), BABA (DL-3-aminobutyric acid), 2,3-BDO (2,3-Butanediol), GABA (r-Aminobutyric acid), glucan (Glucan), ER (Ergosterol), and AZA (Azelaic acid) were used. For the in vitro analysis of the expression of induced resistance gene in pine callus, the selected induced resistance materials were applied with 500 µℓ of LM liquid medium on a surface of pine tree callus (100 mg) in 12-well microplate to give final concentration of 200 µg/mℓ. Then, the callus surface was sufficiently reacted for 24 hours with the candidate of pine tree induced resistance material by shaking at 50 rpm in a 25 °C shaking incubator under dark condition. RNAs were extracted from the callus after completion of the reaction with an induced resistance material, followed by synthesis of cDNAs. Then, by carrying out qRT-PCR, the expression of induced resistance genes was determined.
Thus, the following tests were carried out using acibenzolar-S-methyl only. Expression of the induced resistance genes at different culture time after the chemical treatment was examined. For the in vitro assay, LM medium containing pine tree callus was treated with acibenzolar-S-methyl at concentration of 200 µg / mℓ, followed by reaction for 1 day, 7 days, or 14 days in a 25°C shaking incubator under dark condition. RNAs were extracted from the callus after the reaction followed by synthesis of cDNAs. Then, by carrying out qRT-PCR, the expression of the induced resistance genes was determined. Depending on reaction time after the treatment, i.e., after 1 day, 7 days, or 14 days, the expression of the obtained induced resistance genes was examined. […]
For the surface treatment (spraying treatment) of pine tree callus, 100 mg of the pine tree callus were dunked in 500 µℓ LM liquid medium and 500 µℓ of 400 µg/mℓ acibenzolar-S-methyl were sprayed (i.e., sprayed 5 times, 100 µℓ for each spraying, 200 µg/mℓ) on the callus surface. Then, the pine callus sprayed with acibenzolar-S-methyl was reacted for 24 hours by shaking at 50 rpm in a 25°C shaking incubator under dark condition. After the completion of the 24-hour reaction, RNAs were extracted from the callus followed by synthesis of cDNAs. Then, by carrying out qRT-PCR, expression of the induced resistance gene was determined.

[1] = test system: induced resistance-related genes; assay: qRT-PCR expression of induced resistance genes in pine tree callus, overall statement; conditions: 200 µg/mℓ
Method: For in vitro analysis of induced resistance, the expression of PR genes and other plant defense-related genes was determined, which are evolved in various defense mechanisms including induced resistance. The primers of sixteen induced resistance-related genes of pine tree used in this invention were listed in the below and elongation factor_1 alpha were used as a reference gene. [Table 4] The primer list of defense resistance-related genes
as §2, with “determined. [Table 5] Expression of induced resistance gene in pine tree callus by TDL, PBZ, ASM, ITL, AZO, VMA, glucan, and AZA” for “determined.”

[2] = 200 µg/mℓ, Direct supplying as a medium component
[3] = concentration series, 200 µg/mℓ

## CC(N)CC(=O)O (racemic) [BABA, DL-3-aminobutyric acid]
Extensin; 200 µg/mℓ
  Expression of induced resistance gene, Extensin: 0.78
PR_1b family
  Expression of induced resistance gene, PR_1b family: 0.48
PR_10 family; 200 µg/mℓ
  Expression of induced resistance gene, PR_10 family: 1.23
PR_5 family; 200 µg/mℓ
  Expression of induced resistance gene, PR_5 family: 0.92
Cytochrome_P450; 200 µg/mℓ
  Expression of induced resistance gene, Cytochrome_P450: 0.37

## CC(O)C(C)O (stereo not shown) [2,3-BDO, 2,3-Butanediol]
Extensin; 200 µg/mℓ
  Expression of induced resistance gene, Extensin: 1.07
PR_1b family
  Expression of induced resistance gene, PR_1b family: 4.36
PR_10 family; 200 µg/mℓ
  Expression of induced resistance gene, PR_10 family: 0.86
PR_5 family; 200 µg/mℓ
  Expression of induced resistance gene, PR_5 family: 1.13
Cytochrome_P450; 200 µg/mℓ
  Expression of induced resistance gene, Cytochrome_P450: 0.88

## CSC(=O)c1cccc2nnsc12 [ASM, acibenzolar-S-methyl]
[1]
  expression of induced resistance-related genes is induced overall: ≥ 2 times
  expression of most PR genes was enhanced: ≥ 2 times
Extensin; 200 µg/mℓ
  Expression of induced resistance gene, Extensin: 2.1
Extensin; [2]
  Expression of induced resistance gene, Extensin: 2.27
Extensin; 200 µg/mℓ, Spraying
  Expression of induced resistance gene, Extensin: 2.1
Extensin; 200 µg/mℓ, After 1 day
  Gene expression level, Extensin: 9.99
Extensin; 200 µg/mℓ, After 7 days
  Gene expression level, Extensin: 1.23
Extensin; 200 µg/mℓ, After 14 days
  Gene expression level, Extensin: 0.33
Extensin; concentration series, 2 µg/mℓ
  Gene expression level, Extensin: 0.9012
Extensin; concentration series, 20 µg/mℓ
  Gene expression level, Extensin: 1.385
Extensin; [3]
  Gene expression level, Extensin: 1.693
PR_1b family
  Expression of induced resistance gene, PR_1b family: 2
PR_1b family; Direct supplying as a medium component
  Expression of induced resistance gene, PR_1b family: 6.28
PR_1b family; Spraying
  Expression of induced resistance gene, PR_1b family: 2
PR_1b family; After 1 day
  Gene expression level, PR_1b family: 6.28
PR_1b family; After 7 days
  Gene expression level, PR_1b family: 0.72
PR_1b family; After 14 days
  Gene expression level, PR_1b family: 0.4
PR_1b family; concentration series
  Gene expression level, PR_1b family: 0.9395
PR_10 family; 200 µg/mℓ
  Expression of induced resistance gene, PR_10 family: 1.71
PR_10 family; [2]
  Expression of induced resistance gene, PR_10 family: 10.63
PR_10 family; 200 µg/mℓ, Spraying
  Expression of induced resistance gene, PR_10 family: 1.71
PR_10 family; 200 µg/mℓ, After 1 day
  Gene expression level, PR_10 family: 8.57
PR_10 family; 200 µg/mℓ, After 7 days
  Gene expression level, PR_10 family: 0.51
PR_10 family; 200 µg/mℓ, After 14 days
  Gene expression level, PR_10 family: 0.64
PR_10 family; concentration series, 2 µg/mℓ
  Gene expression level, PR_10 family: 0.8293
PR_10 family; concentration series, 20 µg/mℓ
  Gene expression level, PR_10 family: 1.11
PR_10 family; [3]
  Gene expression level, PR_10 family: 1.094
PR_5 family; 200 µg/mℓ
  Expression of induced resistance gene, PR_5 family: 2.93
PR_5 family; [2]
  Expression of induced resistance gene, PR_5 family: 5.9
PR_5 family; 200 µg/mℓ, Spraying
  Expression of induced resistance gene, PR_5 family: 2.93
PR_5 family; 200 µg/mℓ, After 1 day
  Gene expression level, PR_5 family: 5.9
PR_5 family; 200 µg/mℓ, After 7 days
  Gene expression level, PR_5 family: 0.45
PR_5 family; 200 µg/mℓ, After 14 days
  Gene expression level, PR_5 family: 0.17
PR_5 family; concentration series, 2 µg/mℓ
  Gene expression level, PR_5 family: 4
PR_5 family; concentration series, 20 µg/mℓ
  Gene expression level, PR_5 family: 8.515
PR_5 family; [3]
  Gene expression level, PR_5 family: 2.809
Cytochrome_P450; 200 µg/mℓ
  Expression of induced resistance gene, Cytochrome_P450: 1.71
Cytochrome_P450; [2]
  Expression of induced resistance gene, Cytochrome_P450: 9.99
Cytochrome_P450; 200 µg/mℓ, Spraying
  Expression of induced resistance gene, Cytochrome_P450: 1.71
Cytochrome_P450; 200 µg/mℓ, After 1 day
  Gene expression level, Cytochrome_P450: 7.21
Cytochrome_P450; 200 µg/mℓ, After 7 days
  Gene expression level, Cytochrome_P450: 0.85
Cytochrome_P450; 200 µg/mℓ, After 14 days
  Gene expression level, Cytochrome_P450: 0.04
Cytochrome_P450; concentration series, 2 µg/mℓ
  Gene expression level, Cytochrome_P450: 1.231
Cytochrome_P450; concentration series, 20 µg/mℓ
  Gene expression level, Cytochrome_P450: 1.173
Cytochrome_P450; [3]
  Gene expression level, Cytochrome_P450: 1.231

## O=C(O)CCCCCCCC(=O)O [AZA, Azelaic acid]
Extensin; 200 µg/mℓ
  Expression of induced resistance gene, Extensin: 1.15
PR_1b family
  Expression of induced resistance gene, PR_1b family: 1.15
PR_10 family; 200 µg/mℓ
  Expression of induced resistance gene, PR_10 family: 1.16
PR_5 family; 200 µg/mℓ
  Expression of induced resistance gene, PR_5 family: 1.45
Cytochrome_P450; 200 µg/mℓ
  Expression of induced resistance gene, Cytochrome_P450: 1.05

## CO/C=C(/C(=O)OC)c1ccccc1Oc1cc(Oc2ccccc2C#N)ncn1 [AZO, Azoxystrobin]
Extensin; 200 µg/mℓ
  Expression of induced resistance gene, Extensin: 2.01
PR_1b family
  Expression of induced resistance gene, PR_1b family: 1.66
PR_10 family; 200 µg/mℓ
  Expression of induced resistance gene, PR_10 family: 1.4
PR_5 family; 200 µg/mℓ
  Expression of induced resistance gene, PR_5 family: 1.52
Cytochrome_P450; 200 µg/mℓ
  Expression of induced resistance gene, Cytochrome_P450: 1.17

## CC(C)[C@@H](C)/C=C/[C@@H](C)[C@H]1CC[C@H]2C3=CC=C4C[C@@H](O)CC[C@]4(C)[C@H]3CC[C@]12C [ER, Ergosterol]
Extensin; 200 µg/mℓ
  Expression of induced resistance gene, Extensin: 1.06
PR_1b family
  Expression of induced resistance gene, PR_1b family: 1.14
PR_10 family; 200 µg/mℓ
  Expression of induced resistance gene, PR_10 family: 1.21
PR_5 family; 200 µg/mℓ
  Expression of induced resistance gene, PR_5 family: 1.05
Cytochrome_P450; 200 µg/mℓ
  Expression of induced resistance gene, Cytochrome_P450: 1.06
